In patent US9302999B2, “Substituted triazoles as herbicides” (E. I. DU PONT DE NEMOURS AND COMPANY, priority 2012, dated 2016):

Key:
Type in all cases: in vivo
[1] = test system: wheat (Triticum aestivum); assay: Test A pre-/postemergence: wheat
In short: (§1)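 Each species received preemergence soil-directed spraying and, at the same time, postemergence treatment of seedlings 2–10 cm tall. Formulation: non-phytotoxic solvent mixture including surfactant. Response assessed visually about ten days on, relative to untreated controls, 0–100 scale.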

corn (Zea mays) = assay: Test C pre-/postemergence: corn
In short: (§2)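 Visual injury scored 0–100 (100 = complete control) against untreated controls after 13–15 greenhouse days. Surfactant-containing solvent formulations applied either to soil after sowing (loam/sand) or over 1- to 4-leaf plants, 2–18 cm tall.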

[2] = test system: chickweed (common chickweed, Stellaria media); assay: Test C postemergence: chickweed
Text: (§3) At the same time, plants selected from these crop and weed species and also barley (winter barley, Hordeum vulgare), canarygrass (Phalaris minor), chickweed (common chickweed, Stellaria media) windgrass (Apera spica-venti) and deadnettle (henbit deadnettle, Lamium amplexicaule) were planted in pots containing Redi-Earth® planting medium (Scotts Company, 14111 Scottslawn Road, Marysville, Ohio 43041) comprising spaghnum peat moss, vermiculite, wetting agent and starter nutrients and treated with postemergence applications of test chemicals formulated in the same manner. Plants ranged in height from 2 to 18 cm (1- to 4-leaf stage) for postemergence treatments.
(§4) Treated plants and controls were maintained in a greenhouse for 13 to 15 days, after which time all species were compared to controls and visually evaluated. Plant response ratings, summarized in Table C, are based on a scale of 0 to 100 where 0 is no effect and 100 is complete control. A dash (-) response means no test result.

[3] = test system: morningglory (Ipomoea coccinea); assay: Test C pre-/postemergence: morningglory
Text: (§5) Seeds of plant species selected from blackgrass (Alopecurus myosuroides), bromegrass, downy (downy bromegrass, Bromus tectorum), foxtail, green (green foxtail, Setaria viridis), ryegrass, Italian (Italian ryegrass, Lolium multiflorum), winter wheat (Triticum aestivum), wild oat (Avena fatua), galium (catchweed bedstraw, Galium aparine), bermudagrass (Cynodon dactylon), surinam grass (Brachiaria decumbens), cocklebur (common cocklebur, Xanthium strumarium), corn (Zea mays), large crabgrass (Digitaria sanguinalis), woolly cupgrass (Eriochloa villosa), foxtail, giant (giant foxtail, Setaria faberii), goosegrass (Eleusine indica), johnsongrass (Sorghum halepense), kochia (Kochia scoparia), lambsquarters (Chenopodium album), morningglory (Ipomoea coccinea), nightshade (eastern black nightshade, Solanum ptycanthum), nutsedge, yellow (yellow nutsedge, Cyperus esculentus), pigweed (Amaranthus retroflexus), ragweed (common ragweed, Ambrosia elation), soybean (Glycine max), common (oilseed) sunflower (Helianthus annuus), Russian thistle (Salsola kali) and velvetleaf (Abutilon theophrasti) were planted into a blend of loam soil and sand and treated preemergence with test chemicals formulated in a non-phytotoxic solvent mixture which included a surfactant.
as §3, §4

[4] = test system: pigweed (Amaranthus retroflexus); assay: Test A pre-/postemergence: pigweed
In short: as §1

[5] = test system: velvetleaf (Abutilon theophrasti); assay: Test A pre-/postemergence: velvetleaf
In short: as §1

[6] = test system: morningglory (Ipomoea spp.); assay: Test A pre-/postemergence: morningglory
In short: as §1

kochia (Kochia scoparia) = assay: Test C pre-/postemergence: kochia
Text: as §5, §3, §4

[7] = test system: velvetleaf (Abutilon theophrasti); assay: Test C pre-/postemergence: velvetleaf
In short: as §2

[8] = test system: ragweed (common ragweed, Ambrosia elation); assay: Test C pre-/postemergence: ragweed
Text: as §5, §3, §4

[9] = test system: winter wheat (Triticum aestivum); assay: Test C pre-/postemergence: winter wheat
In short: as §2

[10] = test system: foxtail, giant (giant foxtail, Setaria faberii); assay: Test A pre-/postemergence: foxtail, giant
In short: as §1

[11] = Postemergence, 1000 g ai/ha, visual rating on 0 to 100 scale (0 no effect, 100 complete control), approximately ten days
[12] = Preemergence, 1000 g ai/ha, 0 to 100 scale, 0 is no effect, 100 is complete control
[13] = Postemergence, 16 g ai/ha, scale 0 to 100, 0 no effect, 100 complete control
[14] = Postemergence, 31 g ai/ha, scale 0 to 100 (0 no effect, 100 complete control)
[15] = Postemergence, 62 g ai/ha, scale 0 to 100 (0 no effect, 100 complete control)
[16] = Postemergence, 125 g ai/ha, scale 0 to 100, 0 no effect, 100 complete control
[17] = 31 g ai/ha, scale 0 to 100 (0 no effect, 100 complete control)
[18] = 62 g ai/ha, scale 0 to 100 (0 no effect, 100 complete control)
[19] = 125 g ai/ha, scale 0 to 100, 0 no effect, 100 complete control
[20] = Postemergence, 125 g ai/ha, 0 to 100 scale, 0 is no effect, 100 is complete control
[21] = Postemergence, 500 g ai/ha, visual rating on 0 to 100 scale (0 no effect, 100 complete control), approximately ten days
[22] = Preemergence, 125 g ai/ha, 0 to 100 scale where 0 is no effect and 100 is complete control
[23] = Preemergence, 500 g ai/ha, 0 to 100 scale (0 no effect, 100 complete control)
[24] = Preemergence, 31 g ai/ha, scale of 0 to 100, 0 is no effect, 100 is complete control
[25] = Preemergence, 62 g ai/ha, scale of 0 to 100, 0 is no effect, 100 is complete control
[26] = Preemergence, 125 g ai/ha, scale 0 to 100, 0 no effect, 100 complete control
[27] = Preemergence, 250 g ai/ha, scale 0 to 100, 0 no effect, 100 complete control
[28] = Postemergence, 250 g ai/ha, scale 0 to 100

For Cc1nn(-c2ccc(C(F)(F)F)cc2)nc1Cc1cccc(C(F)(F)F)c1 [Compound 124], the “Wheat plant response rating” value [1, 11] was 40, the “Wheat plant response rating” value [1, 12] was 0 and the “Plant response rating, Corn” value (corn (Zea mays); [13]) was 5. For the same compound, the “Plant response rating, Corn” value (corn (Zea mays); [14]) was 20, the “Plant response rating, Corn” value (corn (Zea mays); [15]) was 25 and the “Plant response rating, Corn” value (corn (Zea mays); [16]) was 25. For the same compound, the “Plant response rating, Chickweed” value ([2]; 16 g ai/ha, scale 0 to 100, 0 no effect, 100 complete control) was 45, the “Plant response rating, Chickweed” value [2, 17] was 50 and the “Plant response rating, Chickweed” value [2, 18] was 55. For the same compound, the “Plant response rating, Chickweed” value [2, 19] was 55, the “Plant response rating, Morningglory” value [3, 13] was 15 and the “Plant response rating, Morningglory” value [3, 14] was 15. For the same compound, the “Plant response rating, Morningglory” value [3, 15] was 40, the “Plant response rating, Morningglory” value [3, 16] was 40 and the “Pigweed plant response rating” value [4, 11] was 100. For the same compound, the “Pigweed plant response rating” value [4, 12] was 100, the “Velvetleaf plant response rating” value [5, 11] was 100 and the “Velvetleaf plant response rating” value [5, 12] was 80. For the same compound, the “Morningglory plant response rating” value [6, 11] was 100, the “Morningglory plant response rating” value [6, 12] was 40 and the “Plant response rating, Kochia” value (kochia (Kochia scoparia); [13]) was 75. The “Plant response rating, Kochia” value (kochia (Kochia scoparia); [14]) was 80, the “Plant response rating, Kochia” value (kochia (Kochia scoparia); [15]) was 80 and the “Plant response rating, Kochia” value (kochia (Kochia scoparia); [16]) was 85. For the same compound, the “Plant response rating, Velvetleaf” value [7, 13] was 45, the “Plant response rating, Velvetleaf” value [7, 14] was 45 and the “Plant response rating, Velvetleaf” value [7, 15] was 50. For the same compound, the “Plant response rating, Velvetleaf” value [7, 16] was 55, the “Plant response rating, Ragweed” value [8, 13] was 45 and the “Plant response rating, Ragweed” value [8, 14] was 50. For the same compound, the “Plant response rating, Ragweed” value [8, 15] was 65, the “Plant response rating, Ragweed” value [8, 16] was 65 and the “Plant response rating, Wheat” value [9, 13] was 5. For the same compound, the “Plant response rating, Wheat” value [9, 14] was 10, the “Plant response rating, Wheat” value [9, 15] was 15 and the “Plant response rating, Wheat” value [9, 16] was 20. The “Foxtail, Giant plant response rating” value [10, 11] was 90 and the “Foxtail, Giant plant response rating” value [10, 12] was 100.

With Cc1nn(-c2ccc(F)c(C(F)(F)F)c2)nc1Oc1ccnc(C(F)(F)F)c1 [Compound 147] the “Plant response rating, Wheat” value [1, 20] was 20, the “Wheat plant response rating” value [1, 21] was 50 and the “Plant response rating, Wheat” value [1, 22] was 30. The “Plant response rating, Wheat” value [1, 23] was 50, the “Plant response rating, Corn” value (corn (Zea mays); [24]) was 10 and the “Plant response rating, Corn” value (corn (Zea mays); [25]) was 10. For the same compound, the “Plant response rating, Corn” value (corn (Zea mays); [26]) was 25, the “Plant response rating, Corn” value (corn (Zea mays); [27]) was 35 and the “Plant response rating, Morningglory” value [3, 24] was 30. The “Plant response rating, Morningglory” value [3, 25] was 30, the “Plant response rating, Morningglory” value [3, 27] was 35 and the “Plant response rating, Pigweed” value [4, 20] was 100. For the same compound, the “Pigweed plant response rating” value [4, 21] was 100, the “Plant response rating, Pigweed” value [4, 22] was 100 and the “Plant response rating, Pigweed” value [4, 23] was 100. The “Plant response rating, Velvetleaf” value [5, 20] was 50, the “Velvetleaf plant response rating” value [5, 21] was 90 and the “Plant response rating, Velvetleaf” value [5, 22] was 20. For the same compound, the “Plant response rating, Velvetleaf” value [5, 23] was 50, the “Plant response rating, Morningglory” value [6, 20] was 90 and the “Morningglory plant response rating” value [6, 21] was 90. For the same compound, the “Plant response rating, Morningglory” value [6, 23] was 80, the “Plant response rating, Kochia” value (kochia (Kochia scoparia); [24]) was 35 and the “Plant response rating, Kochia” value (kochia (Kochia scoparia); [25]) was 40. For the same compound, the “Plant response rating, Kochia” value (kochia (Kochia scoparia); [26]) was 80, the “Plant response rating, Kochia” value (kochia (Kochia scoparia); [27]) was 85 and the “Plant response rating, Velvetleaf” value [7, 24] was 25. The “Plant response rating, Velvetleaf” value [7, 25] was 55, the “Plant response rating, Velvetleaf” value [7, 26] was 60 and the “Plant response rating, Velvetleaf” value [7, 27] was 100. For the same compound, the “Plant response rating, Ragweed” value [8, 24] was 25, the “Plant response rating, Ragweed” value [8, 25] was 40 and the “Plant response rating, Ragweed” value [8, 26] was 70. The “Plant response rating, Ragweed” value [8, 27] was 80, the “Plant response rating, Wheat” value [9, 25] was 5 and the “Plant response rating, Wheat” value [9, 26] was 30. The “Plant response rating, Wheat” value [9, 27] was 45, the “Foxtail, Giant plant response rating” value [10, 20] was 70 and the “Foxtail, Giant plant response rating” value [10, 21] was 80. The “Plant response rating, Foxtail, Giant” value [10, 22] was 100 and the “Plant response rating, Foxtail, Giant” value [10, 23] was 100.

With Cc1nn(-c2ccnc(C(F)(F)F)c2)nc1Cc1ccnc(C(F)(F)F)c1 [Compound 137] the “Plant response rating, Wheat” value [1, 20] was 20, the “Wheat plant response rating” value [1, 21] was 30 and the “Plant response rating, Wheat” value [1, 22] was 0. The “Plant response rating, Wheat” value [1, 23] was 0, the “Plant response rating, Chickweed” value [2, 17] was 70 and the “Plant response rating, Chickweed” value [2, 18] was 80. For the same compound, the “Plant response rating, Chickweed” value [2, 19] was 98, the “Plant response rating, Chickweed” value ([2]; 250 g ai/ha, scale 0 to 100) was 98 and the “Plant response rating, Morningglory” value [3, 15] was 60. The “Plant response rating, Morningglory” value [3, 16] was 80, the “Plant response rating, Morningglory” value [3, 28] was 90 and the “Plant response rating, Pigweed” value [4, 20] was 100. For the same compound, the “Pigweed plant response rating” value [4, 21] was 100, the “Plant response rating, Pigweed” value [4, 22] was 100 and the “Plant response rating, Pigweed” value [4, 23] was 100. The “Plant response rating, Velvetleaf” value [5, 20] was 80, the “Velvetleaf plant response rating” value [5, 21] was 100 and the “Plant response rating, Velvetleaf” value [5, 22] was 20. For the same compound, the “Plant response rating, Velvetleaf” value [5, 23] was 20, the “Plant response rating, Morningglory” value [6, 20] was 80 and the “Morningglory plant response rating” value [6, 21] was 100. For the same compound, the “Plant response rating, Morningglory” value [6, 22] was 40, the “Plant response rating, Morningglory” value [6, 23] was 60 and the “Plant response rating, Kochia” value (kochia (Kochia scoparia); [14]) was 90. The “Plant response rating, Kochia” value (kochia (Kochia scoparia); [15]) was 90, the “Plant response rating, Kochia” value (kochia (Kochia scoparia); [16]) was 90 and the “Plant response rating, Kochia” value (kochia (Kochia scoparia); [28]) was 90. For the same compound, the “Plant response rating, Velvetleaf” value [7, 14] was 35, the “Plant response rating, Velvetleaf” value [7, 15] was 55 and the “Plant response rating, Velvetleaf” value [7, 16] was 55. For the same compound, the “Plant response rating, Velvetleaf” value [7, 28] was 70, the “Plant response rating, Ragweed” value [8, 14] was 65 and the “Plant response rating, Ragweed” value [8, 16] was 75. The “Plant response rating, Ragweed” value [8, 28] was 85, the “Plant response rating, Wheat” value [9, 14] was 10 and the “Plant response rating, Wheat” value [9, 15] was 15. For the same compound, the “Plant response rating, Wheat” value [9, 16] was 30, the “Plant response rating, Wheat” value [9, 28] was 35 and the “Foxtail, Giant plant response rating” value [10, 20] was 90. The “Foxtail, Giant plant response rating” value [10, 21] was 90, the “Plant response rating, Foxtail, Giant” value [10, 22] was 90 and the “Plant response rating, Foxtail, Giant” value [10, 23] was 90.
